Experimental data reported in patent US20230414607A1, “METHODS OF TREATMENT” (BOW RIVER LLC, priority 2017, published 2023).
Where two headings read alike, the source gives them in different places.

What was measured:
[1] = Example 2: posaconazole pharmacokinetics in normal-weight and obese subjects; format: in vivo, human; settings: for Steady-state concentration, Mean ± SD: posaconazole 300 mg once daily; for half-life: human, plasma, oral
Procedure: On study Day 4, subjects received two doses of posaconazole (300 mg BID). On the mornings of Days 5-17, they received posaconazole 300 mg once daily. As posaconazole is to be taken with food, subjects were fed a continental breakfast in the clinical research unit after receiving posaconazole and prior to discharge from the unit. Venous blood samples were drawn into EDTA containing tubes prior to the posaconazole dose on Days 4, 7, 11, and prior to the lurasidone dose on Days 14, 20, 23, 26 and 30. An additional blood sample was taken 5 hours after posaconazole dosage on Day 17, for approximate determination of maximum posaconazole plasma concentrations, and on Day 33. Samples were centrifuged and the plasma was separated and frozen at −70° C. until the time of assay.
Analytic Methods. All bioassay analyses were performed by Keystone Bioanalytical, North Wales, PA. For analysis of posaconazole, the internal standard (posaconazole-D4) was added to the biological samples. Plasma samples were precipitated using formic acid in acetonitrile and isolated using a Phree phospholipid removal tube. An aliquot of the sample was injected onto a high-pressure liquid chromatograph with tandem mass spectrometry triple quadrupole mass spectrometer (SCIEX API-5500). The analytical column was a Unison CK-218, 3 μm particle size HPLC column (50×2 mm) from Imtakt USA (Portland, OR). The mobile phase consisted of an aqueous component (0.25% formic acid and 10 mM ammonium formate in water) and an organic component (0.1% formic acid in acetonitrile) and was delivered by gradient, with the organic component going from 35% to 100%. The m/z transitions monitored were 701.6>614.4 for posaconazole and 705.6>618.4 for the internal standard. The calibration curve ranged from 1-1000 ng/mL (8 concentrations in duplicate).
Pharmacokinetic and Statistical Methods. […] The apparent washout half-life of posaconazole was calculated by log-linear regression analysis starting with the plasma concentration on Day 20 and ending with the last non-zero value. Differences between normal-weight and obese cohorts were evaluated by Student's t-test for independent groups. The relation between measures of body habitus and posaconazole washout half-life for individual subjects was evaluated by linear regression analysis.

[2] = Pooled posaconazole steady-state concentration and elimination half-life, clinical studies BOW-001 and BOW-002; format: in vivo, human; settings: for half-life: human, in vivo
Excerpt: The two clinical studies used the same protocol to measure posaconazole's elimination half-life, allowing for the data for normal patients from each study to be combined (“All Normal”) and data for obese patients from each study to be combined (“All Obese”).

[3] = Example 3: posaconazole posttreatment washout; format: in vivo; settings: human, plasma, oral, 300 mg
[4] = Noxafil label, cited from earlier work
[5] = Plasma posaconazole concentrations and washout half-life in normal-weight and obese subjects; format: in vivo, human; settings: for Trough (predose) steady-state posaconazole concentration: Day 15, posaconazole 300 mg delayed-release tablet daily; for half-life: human, plasma, oral, from day 15, read-out: Postdosage washout half-life of posaconazole (converted)
Procedure: On study day 2, subjects received posaconazole (300 mg delayed-release tablet twice a day), and on the mornings of days 3-15, subjects received posaconazole (300 mg delayed-release tablet daily). Because posaconazole is to be taken with food,^6 subjects were fed a continental breakfast in the clinical research unit after receiving posaconazole and before discharge from the unit. […] One additional blood sample was taken 5 hours after the posaconazole dose on day 15 for approximate determination of maximum plasma posaconazole concentrations. Samples were centrifuged, and the plasma was separated and frozen at −70° C. until the time of assay of plasma posaconazole concentrations.
Analytic Methods. All bioassay analysis was performed by Keystone Bioanalytical (North Wales, PA). For analysis of posaconazole, the internal standard (posaconazole-d4) was added to the biological samples. Plasma samples were precipitated using formic acid in acetonitrile and isolated using a Phree phospholipid removal tube, and then an aliquot of the sample was injected onto a high-pressure liquid chromatography with tandem mass spectrometry triple quadrupole mass spectrometer (Sciex API-5500). The analytical column was a Unison CK-218, 3 μm particle size HPLC column (50×2 mm) from Imtakt USA (Portland, OR). The mobile phase consisted of an aqueous component (0.25% formic acid and 10 mmol/L ammonium formate in water) and an organic component (0.1% formic acid in acetonitrile) and was delivered by gradient, with the organic component going from 35% to 100%. The m/z transitions monitored were 701.6→614.4 for posaconazole and 705.6→618.4 for the internal standard. The calibration curve ranged from 1 to 1000 ng/mL (8 concentrations in duplicate). The interassay precision of this method (as percentage coefficient of variance) was 4.28% to 7.14%, and the interassay accuracy (as percentage relative error) was […] to 3.12%.
For each subject, the predose plasma posaconazole concentration on study day 15 was used as a steady-state concentration. The apparent washout half-life of posaconazole was calculated by log-linear regression analysis starting with the plasma concentration on day 15 and ending with the last nonzero value. Differences between normal-weight and obese cohorts were evaluated by Student t-test for independent groups.

[6] = biological target: CYP3A4 (Homo sapiens, UniProt P08684); settings: human
Chain of CYP3A4 (P08684 whole entry): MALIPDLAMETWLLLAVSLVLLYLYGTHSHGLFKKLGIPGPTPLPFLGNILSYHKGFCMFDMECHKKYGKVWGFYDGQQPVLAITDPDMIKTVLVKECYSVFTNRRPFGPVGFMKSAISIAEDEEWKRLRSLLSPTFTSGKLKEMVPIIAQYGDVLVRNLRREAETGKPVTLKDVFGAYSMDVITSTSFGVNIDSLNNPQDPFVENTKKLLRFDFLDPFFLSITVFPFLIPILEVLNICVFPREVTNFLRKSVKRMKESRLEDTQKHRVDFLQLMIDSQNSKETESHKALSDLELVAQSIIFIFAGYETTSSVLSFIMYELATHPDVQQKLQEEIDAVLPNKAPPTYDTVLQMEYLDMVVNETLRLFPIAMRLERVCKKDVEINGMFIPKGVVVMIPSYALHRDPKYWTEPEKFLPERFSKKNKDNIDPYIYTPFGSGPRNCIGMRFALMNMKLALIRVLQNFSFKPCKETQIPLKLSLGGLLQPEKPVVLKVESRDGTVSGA
Excerpt: Blood plasma levels may be described in various ways, such as area under the plasma concentration curve (AUC) and peak plasma concentration (Cmax). Baseline levels and posaconazole interaction levels for CYP3A4 substrate drugs may be compared using the geometric mean ratio (GMR) of AUC and Cmax. […] GMR is the standard industry and regulatory method for assessing the ratio of change of a pharmacokinetic variable (such as AUC) relative to its own baseline value (e.g., in a patient that was not treated with posaconazole). Once the level of substrate drug (AUC or Cmax) during co-administration with posaconazole and a CYP3A4 substrate drug is known, a function can be derived using conventional pharmacological methods to estimate how the AUC or plasma level of the CYP3A4 substrate drug is expected to decay over time after stopping administration of posaconazole. Such a function can be used to provide a plot of the decay GMR of AUC (or Cmax) of the CYP3A4 substrate drug versus time due to its interaction with posaconazole, based on the stated half-life of posaconazole.
The expected DDI decay curve can also be calculated for Cmax GMR by substituting Cmax during co-administration for AUC during co-administration in equation 1. As used herein, “expected levels” and “predicted levels” and the like, refer to the AUC or Cmax GMR values calculated using equation 1.

CC[C@@H]([C@H](C)O)n1ncn(-c2ccc(N3CCN(c4ccc(OC[C@@H]5CO[C@@](Cn6cncn6)(c6ccc(F)cc6F)C5)cc4)CC3)cc2)c1=O [posaconazole]
Steady-state concentration, Mean ± SD ([1]; Normal): 2377 ± 1188 ng/mL | Steady-state concentration, Mean ± SD ([1]; Obese): 1462 ± 649 ng/mL | half-life ([1]; Normal, read-out: Washout half-life, Mean ± SD (converted)): 31 h | half-life ([1]; Obese, read-out: Washout half-life, Mean ± SD (converted)): 53 h | half-life ([1]; controls (normal-weight), read-out: Mean washout half-life (converted)): 30.7 h | half-life ([1]; obese group, read-out: Mean washout half-life (converted)): 52.6 h | half-life ([1]; two obese subjects, read-out: very long half-life values (converted)): 121 h | Css, Mean ([2]; All Normal (pooled)): 2864 ng/mL | Css, Mean ([2]; All Obese (pooled)): 1860 ng/mL | Css, Mean ([2]; BOW-001 Normal): 3071 ng/mL | Css, Mean ([2]; BOW-001 Obese): 2258 ng/mL | Css, Mean ([2]; BOW-002 Normal): 2514 ng/mL | Css, Mean ([2]; BOW-002 Obese): 1462 ng/mL | half-life ([2]; All Normal (pooled), normal weight patients, read-out: t1/2, Mean (elimination half-life) (converted)): 33.6 h | half-life ([2]; All Obese (pooled), obese patients, read-out: t1/2, Mean (elimination half-life) (converted)): 58.3 h | half-life ([2]; BOW-001 Normal, read-out: t1/2, Mean (converted)): 35.7 h | half-life ([2]; BOW-001 Obese, read-out: t1/2, Mean (converted)): 64.5 h | half-life ([2]; BOW-002 Normal, read-out: t1/2, Mean (converted)): 30.9 h | half-life ([2]; BOW-002 Obese, read-out: t1/2, Mean (converted)): 52.5 h | half-life ([3]; normals): 36 h | half-life ([3]; obese subjects): 64 h | posaconazole half-life ([4]; after administration of posaconazole oral suspension): 31 to 37 h | posaconazole half-life ([4]; after dosing with posaconazole injection): about 24 hours | posaconazole half-life ([4]; patients with mild hepatic impairment): 39 h | posaconazole half-life ([4]; patients with moderate hepatic impairment): 27 h | posaconazole half-life ([4]; patients with normal hepatic function): 27 h | posaconazole half-life ([4]; patients with severe hepatic impairment): 43 h | Trough (predose) steady-state posaconazole concentration ([5]; normal-weight subjects): 3071 ± 1422 ng/mL | Trough (predose) steady-state posaconazole concentration ([5]; obese subjects): 2258 ± 952 ng/mL | half-life ([5]; normal-weight subjects): 35.8 h | half-life ([5]; obese subjects): 64.3 h | Time posaconazole plasma concentrations persisted after stopping treatment ([5]; most subjects): at least 2 weeks | Kel=ln(2)/(31 hours/24 hours) [6]: about 0.5366
